Experimental data reported in US11174223B2, “Compositions, methods, and systems for the synthesis and use of imaging agents” (Lantheus Medical Imaging, Inc., priority 2010, dated 2021).
Structures can show the parent of a compound that is named as a salt.

Tests used:
NET [1] = molecular target: T1, NET (Homo sapiens, UniProt P23975); experiment: Effect of heart failure medications on NET mediated imaging agent-1 uptake in SK-N-SH cells; assay type: cell-based; set-up: endogenous in cells; host or cells: SK-N-SH; details: even at the highest concentrations tested (1000 μM)
[2] = system: norepinephrine transporter (NET), uptake 1; experiment: Heart uptake in rats after uptake 1 blockade (desipramine) or 6-hydroxydopamine sympathetic denervation; assay type: in vivo; details: sympathetic denervated rats
Method: (§1) Desipramine, a selective uptake 1 inhibitor, was used to block cardiac uptake 1 in rats (10 mg/kg, ip), rabbits (1 mg/kg iv), and NHPs (0.5 mg/kg, iv). 6-hydroxydopamine, a neurotoxin, was injected to induce sympathetic denervation in rats (100 mg/kg ip for 7 days) and rabbits (25 mg/kg iv on day 1, 2, 7, and 8). Imaging agent-1 heart uptake in comparison with MIBG was assessed by tissue sampling at 60 minutes post imaging agent injection. Imaging was also performed with (2-tert-butyl-4-chloro-5-[4-(2-[^18F]fluoroethoxymethyl)-benzyloxy]-2H-pyridazin-3-1.

[3] = system: norepinephrine transporter (NET), uptake 1; experiment: Heart uptake in rabbits after uptake 1 blockade (desipramine) or 6-hydroxydopamine sympathetic denervation; assay type: in vivo; details: denervated rabbits and uptake 1 blocked rabbits and NHPs
Method: (§2) Imaging agent-1 was designed as a substrate for the norepinephrine transporter (NET) to image the cardiac sympathetic nervous system. […] These values were similar to that of MIBG (2.12±0.26 μM and 4.76±0.78 pmol/min/million cells). In animals, tissue biodistribution of imaging agent-1 was assessed by tissue sampling at 15- and 60-minute following administration. Heart uptake was 2.36±0.16 and 2.17±0.12% injected dose per g tissue (% ID/g) in rats and 0.25±0.03 and 0.28±0.03% ID/g in rabbits. In rabbits, desipramine (1 mg/kg) inhibited heart uptake of imaging agent-1 by 68% and ^123I-MIBG uptake by 55% at 1 hour post dose.
as §1

[4] = Cardiac PET imaging in rabbit model of regional cardiac sympathetic denervation (RCSD) and re-innervation; assay type: in vivo, rabbits; details: all rabbits including those with RCSD regions
Method: (§3) Rabbit models of RCSD were developed by applying phenol directly on the surface of the left ventricular wall during a sternotomy. Two and twelve weeks following the procedure, imaging agent-1 cardiac PET imaging (˜1.5 mCi, iv) were performed in these rabbits. The myocardial area with radioactivity ≥50% maximum was quantified as innervated region for comparison. To evaluate susceptibility of arrhythmia in rabbits, dofetilide (10 and 40 μg/kg iv, a delayed IKr inhibitor) induced changes were assessed by measuring ECG including heart rate (HR), QTc interval (corrected by Fridericia method), and frequency of arrhythmia.

[5] = Cardiac PET imaging in rabbit models of regional and systemic cardiac sympathetic denervation (CSD); assay type: in vivo, rabbits; details: rabbits
Method: Rabbit models of regional and systemic CSD were used. To develop regional CSD, a median sternotomy was performed and phenol (89% in liquid) was pained on the anterior and posterior walls of the left ventricle. To develop systemic denervation the neurotoxin, 6-hydroxydopamine (25 mg/kg on day 1, 2, 7 and 8), was administered intravenously. Two weeks following these procedures, rabbits were imaged with imaging agent-1 (˜1.5 mCi, i.v.) using a microPET camera for 30 minutes.

[6] = Solubility of salt forms in acetonitrile; assay type: physicochemical; details: organic solvent or mixture, read-out: Solubility (Acetonitrile; mg/mL)
From the text: (§4) Selected physical properties of the salts of Examples 5-6 and 8-12, determined using established characterization methods, are tabulated below (Table 1).

[7] = Hygroscopicity of salt forms of imaging agent precursor-1; assay type: physicochemical; details: salt form of imaging agent precursor-1
From the text: as §4

[8] = Thermal stability of salt forms; assay type: physicochemical; details: salt form of imaging agent precursor-1
From the text: as §4

[9] = Stability of salt forms to GVS and 40° C./75% RH; assay type: physicochemical; details: salt form of imaging agent precursor-1
From the text: as §4

NET [10] = molecular target: T1, NET; experiment: Cell uptake selectivity with and without desipramine in SK-N-SH cells; assay type: cell-based; set-up: endogenous in cells; host or cells: SK-N-SH
Method: (§5) The affinity (Ki) was determined in a competition binding assay by incubating ^19F-imaging agent-1, a cold analog of imaging agent-1, or NE with ^3H-desmethylimipramine in cell membrane overexpressing human NET. The uptake selectivity was assessed by measuring imaging agent-1 or ^3H-NE cell uptake with and without pretreatment of desipramine, a selective NET inhibitor, in SK—N—SH (human neuroblastoma) and PC-12 (rat pheochromocytoma) cells. In SK—NSH cells, the uptake kinetics (Km and Vmax) were evaluated by measuring NET mediated uptake of imaging agent-1 or NE at various concentrations. Imaging agent-1 cardiac image quality was evaluated by PET imaging (˜1.5 mCi, i.v.) in rabbits in the presence and absence of desipramine (1 mg/kg).

NET [11] = molecular target: T2, NET (Rattus norvegicus, UniProt Q63380); experiment: Cell uptake selectivity with and without desipramine in PC-12 cells; assay type: cell-based
T2 construct: endogenous in cells; host or cells: PC-12
Method: as §5

NET [12] = molecular target: T1, NET; experiment: NET mediated uptake kinetics in SK-N-SH cells; assay type: cell-based; set-up: endogenous in cells; host or cells: SK-N-SH
Method: as §5

[13] = Dofetilide induced ECG changes (arrhythmia susceptibility) in RCSD rabbits; assay type: in vivo; details: RCSD versus control
Method: as §3

[14] = molecular target: T3, norepinephrine transporter (NET) (Homo sapiens, UniProt P23975); experiment: Uptake and uptake kinetics in SH-SY5Y human neuroblastoma cells; assay type: cell-based; details: SH-SY5Y cells
T3 construct: endogenous in cells; host or cells: SH-SY5Y
Method: as §2

[15] = Heart uptake by tissue sampling in Dahl Salt Sensitive (DSS) rats, a model of heart failure; assay type: in vivo
Method: The prognostic value of imaging agent-1 was evaluated in Dahl Salt Sensitive (DSS) rats, a rat model of heart failure (HF), and compared with ^123I-meta-iodobenzylguanidine (^123I-MIBG). DSS rats were fed either a low salt (0.1% as control) or high salt diet (8%) for 5 or 9 weeks. To determine the progression of HF in these rats, plasma norepinephrine levels, and heart and lung weights were measured. Compared to low salt diet groups, DSS rats fed a high salt diet for 5 weeks had marked increases in norepinephrine levels (258±28 vs. 1242±184 pg/mL) and heart to body weight ratio (3.3±0.1 vs. 4.5±0.3 mg/g). By 9 weeks, the norepinephrine levels (656±219 vs. 1508±165 pg/mL) and heart to body weight ratio (3.2±0.1 vs. 6.1±0.3 mg/g) had increased further and the lung to body weight ratio had become elevated (3.9±0.1 vs. 14.0±1.4 mg/g). […] Imaging agent-1 and MIBG heart uptake was examined in early and late stage HF rats by tissue sampling after intravenous administration. The uptake was measured using a gamma counter and expressed as differential absorption ratio (DAR). The imaging agent-1 heart uptake decreased following progression of HF from early to late stage HF (low salt group vs. high salt group: 6.9±0.6 vs. 5.1±0.6 and 8.1±0.2 vs. 3.1±0.2 DAR at 5 and 9 weeks respectively).

[16] = molecular target: T4, norepinephrine transporter (NET), uptake 1 (Oryctolagus cuniculus, UniProt G1TDF9); experiment: Heart uptake in rabbits after uptake 1 blockade (desipramine) or 6-hydroxydopamine sympathetic denervation; assay type: in vivo; details: rabbits, desipramine 1 mg/kg, 1 hour post dose
T4 construct: from tissue; host or cells: rabbit heart, in vivo
Method: as §2, §1

T1 sequence (P23975 whole entry): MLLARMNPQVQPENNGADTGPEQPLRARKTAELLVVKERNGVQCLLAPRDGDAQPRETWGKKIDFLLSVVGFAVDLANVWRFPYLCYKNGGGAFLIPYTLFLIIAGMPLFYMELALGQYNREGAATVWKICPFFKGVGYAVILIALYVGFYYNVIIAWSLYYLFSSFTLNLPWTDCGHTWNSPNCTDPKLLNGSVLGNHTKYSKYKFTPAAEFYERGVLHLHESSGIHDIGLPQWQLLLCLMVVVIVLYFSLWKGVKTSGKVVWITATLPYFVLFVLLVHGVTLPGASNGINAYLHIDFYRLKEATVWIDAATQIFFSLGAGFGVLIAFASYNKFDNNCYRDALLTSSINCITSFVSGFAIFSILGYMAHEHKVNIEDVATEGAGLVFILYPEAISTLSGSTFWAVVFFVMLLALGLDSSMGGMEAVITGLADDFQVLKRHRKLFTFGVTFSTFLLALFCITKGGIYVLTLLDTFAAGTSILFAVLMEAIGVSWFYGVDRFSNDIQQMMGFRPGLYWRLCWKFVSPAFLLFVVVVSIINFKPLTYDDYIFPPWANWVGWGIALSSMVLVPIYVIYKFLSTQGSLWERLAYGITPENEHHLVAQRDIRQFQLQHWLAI
T3 sequence (P23975 whole entry): as above
T4 sequence (G1TDF9 1-617): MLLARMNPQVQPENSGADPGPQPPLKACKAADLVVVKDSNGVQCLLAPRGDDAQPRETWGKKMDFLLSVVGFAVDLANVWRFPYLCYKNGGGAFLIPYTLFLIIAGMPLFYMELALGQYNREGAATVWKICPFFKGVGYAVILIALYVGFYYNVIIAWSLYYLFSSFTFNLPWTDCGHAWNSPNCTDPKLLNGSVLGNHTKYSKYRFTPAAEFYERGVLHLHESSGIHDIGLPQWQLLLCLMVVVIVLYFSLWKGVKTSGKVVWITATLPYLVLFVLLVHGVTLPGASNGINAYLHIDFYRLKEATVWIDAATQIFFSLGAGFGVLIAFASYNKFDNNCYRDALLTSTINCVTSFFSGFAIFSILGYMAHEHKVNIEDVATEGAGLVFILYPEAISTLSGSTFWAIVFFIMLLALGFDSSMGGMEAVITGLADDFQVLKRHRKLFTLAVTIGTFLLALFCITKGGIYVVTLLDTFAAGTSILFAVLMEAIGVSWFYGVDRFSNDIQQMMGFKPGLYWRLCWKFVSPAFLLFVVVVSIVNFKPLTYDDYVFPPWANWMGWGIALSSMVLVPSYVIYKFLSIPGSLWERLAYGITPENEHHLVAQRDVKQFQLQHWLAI
T2 sequence (Q63380 1-617): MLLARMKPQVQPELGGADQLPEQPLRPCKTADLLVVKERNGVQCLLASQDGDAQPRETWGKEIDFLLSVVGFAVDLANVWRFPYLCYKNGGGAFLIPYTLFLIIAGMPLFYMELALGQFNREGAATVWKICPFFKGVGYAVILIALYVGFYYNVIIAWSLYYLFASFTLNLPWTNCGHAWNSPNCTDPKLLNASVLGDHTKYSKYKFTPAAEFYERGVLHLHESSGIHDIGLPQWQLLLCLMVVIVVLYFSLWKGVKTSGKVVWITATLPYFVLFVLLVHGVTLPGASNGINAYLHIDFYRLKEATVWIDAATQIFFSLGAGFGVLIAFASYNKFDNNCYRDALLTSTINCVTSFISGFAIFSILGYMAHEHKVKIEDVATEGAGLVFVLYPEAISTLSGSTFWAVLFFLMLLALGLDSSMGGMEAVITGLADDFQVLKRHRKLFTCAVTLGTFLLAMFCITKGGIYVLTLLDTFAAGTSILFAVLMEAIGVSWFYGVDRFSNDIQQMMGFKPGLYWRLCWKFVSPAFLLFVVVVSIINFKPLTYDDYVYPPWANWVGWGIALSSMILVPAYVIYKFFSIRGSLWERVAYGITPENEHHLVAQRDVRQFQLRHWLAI

SMILES: C[C@H](CS)C(=O)N1CCC[C@H]1C(=O)O [captopril]
- Effect on imaging agent-1 uptake (NET [1]): no effect

SMILES: CC(C)(C)n1ncc(OCc2ccc(COCC[18F])cc2)c(Cl)c1=O [(2-tert-butyl-4-chloro-5-[4-(2-[^18F]fluoroethoxymethyl)-benzyloxy]-2H-pyridazin-3-1, reference compound]
- Cardiac imaging, myocardial activity versus control [2]: comparable myocardial activity
- Cardiac imaging, myocardial activity [3]: marked activity reduction
- Perfusion imaging, myocardial distribution [4]: homogeneous myocardial distribution
- Cardiac perfusion imaging, control versus denervated rabbits [5]: no differences were observed

SMILES: N=C(N)NCc1ccc(OCCCOS(=O)(=O)c2ccc(Br)cc2)c(Br)c1 [Phosphate, 3-(2-Bromo-4-(guanidinomethyl)phenoxy)propyl 4-bromobenzenesulfonate, phosphoric acid salt]
- solubility [6]: 0.3 mg/mL
- Hygroscopicity [7]: Slight
- Thermal stability, First event at [8]: 155 °C
- Stability to GVS and 40° C./75% RH [9]: Stable

SMILES: Cl.N=C(N)NCc1ccc(OCCCOS(=O)(=O)c2ccc(Br)cc2)c(Br)c1 [Hydrochloride, 3-(2-Bromo-4-(guanidinomethyl)phenoxy)propyl 4-bromobenzenesulfonate, hydrochloric acid salt]
- Hygroscopicity [7]: Indicates hydrate
- Thermal stability, First event at [8]: 117 °C
- Stability to GVS and 40° C./75% RH [9]: Stable

SMILES: NC[C@H](O)c1ccc(O)c(O)c1 [NE, norepinephrine, reference compound]
- Inhibition of cell uptake by blockade of NET (desipramine) (NET [10]): 97±1%
- Inhibition of cell uptake by blockade of NET (desipramine) (NET [11]): 93±1%
- Vmax (NET mediated uptake) (NET [12]): 6.2±0.7 pMol/million cells/min

SMILES: CN(CCOc1ccc(NS(C)(=O)=O)cc1)CCc1ccc(NS(C)(=O)=O)cc1 [Dofetilide, dofetilide]
- Induced QTc prolongation, frequency of premature ventricular contraction, and torsades de pointes ([13]; 10 and 40 μg/kg iv): more prominent in the RCSD group than in control
- Induced changes in HR [13]: comparable in the two groups

SMILES: CCCCc1nc(Cl)c(CO)n1Cc1ccc(-c2ccccc2-c2nn[nH]n2)cc1 [Losartan, losartan]
- Effect on imaging agent-1 uptake (NET [1]): no effect

SMILES: N=C(N)NCc1ccc(OCCCOS(=O)(=O)c2ccc(Br)cc2)c(Br)c1 [Sulfate, 3-(2-Bromo-4-(guanidinomethyl)phenoxy)propyl 4-bromobenzenesulfonate, sulfuric acid salt]
- Hygroscopicity [7]: Hygroscopic
- Thermal stability, First event at [8]: 103 °C

SMILES: N=C(N)NCc1ccc(OCCCOS(=O)(=O)c2ccc(Br)cc2)c(Br)c1.O=C(O)c1ccccc1 [Benzoate, 3-(2-Bromo-4-(guanidinomethyl)phenoxy)propyl 4-bromobenzenesulfonate, benzoic acid salt]
- solubility [6]: 1.5 mg/mL

SMILES: CS(=O)(=O)O.N=C(N)NCc1ccc(OCCCOS(=O)(=O)c2ccc(Br)cc2)c(Br)c1 [Mesylate, 3-(2-Bromo-4-(guanidinomethyl)phenoxy)propyl 4-bromobenzenesulfonate, methanesulfonic acid salt]
- solubility [6]: 1.28 mg/mL
- Hygroscopicity [7]: Slight
- Thermal stability, First event at [8]: 152 °C
- Stability to GVS and 40° C./75% RH [9]: Stable

SMILES: N=C(N)NCc1cccc([123I])c1 [MIBG, ^123I-meta-iodobenzylguanidine]
- Vmax (uptake kinetics) [14]: 4.76±0.78 pmol/min/million cells
- Heart uptake, differential absorption ratio (DAR) ([15]; high salt group, 5 weeks (early stage HF)): 3.8±0.5 DAR
- Heart uptake, differential absorption ratio (DAR) ([15]; high salt group, 9 weeks (late stage HF)): 2.3±0.3 DAR
- Heart uptake, differential absorption ratio (DAR) ([15]; low salt group, 5 weeks): 7.3±0.1 DAR
- Heart uptake, differential absorption ratio (DAR) ([15]; low salt group, 9 weeks): 7.9±0.5 DAR
- Inhibition of heart uptake by desipramine (uptake 1 blockade) [16]: 55%

SMILES: N=C(N)NCc1cccc(I)c1 [MIBG, ^123I-meta-iodobenzylguanidine]
- Km [14]: 2.12 ± 0.26 µM

SMILES: CC(=O)O.N=C(N)NCc1ccc(OCCCOS(=O)(=O)c2ccc(Br)cc2)c(Br)c1 [Acetate, 3-(2-Bromo-4-(guanidinomethyl)phenoxy)propyl 4-bromobenzenesulfonate, acetic acid salt]
- solubility [6]: 0.4 mg/mL

SMILES: N=C(N)NCc1ccc(OCCCOS(=O)(=O)c2ccc(Br)cc2)c(Br)c1.O=C(O)C(F)(F)F [Trifluoroacetate, 3-(2-Bromo-4-(guanidinomethyl)phenoxy)propyl 4-bromobenzenesulfonate, trifluoroacetate salt]
- solubility [6]: 4.68 mg/mL
- Hygroscopicity [7]: Slight
- Thermal stability, First event at [8]: 142 °C
- Stability to GVS and 40° C./75% RH [9]: Stable
